We go through 16 compounds from patent publication US20220274980A1, “PHARMACOLOGICAL INHIBITORS OF THE ENL YEATS DOMAIN” (priority 2019, published 2022).

In assay [1] the target is T1, ENL YEATS domain (association with H3K27cr) (Homo sapiens, UniProt Q03111).
T1 sequence (Q03111 1-148): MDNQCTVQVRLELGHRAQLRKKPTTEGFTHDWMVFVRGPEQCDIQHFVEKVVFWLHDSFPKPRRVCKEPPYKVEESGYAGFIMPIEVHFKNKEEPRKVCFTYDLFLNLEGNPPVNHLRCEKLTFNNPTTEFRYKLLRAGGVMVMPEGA
Put plainly: biochemical. The settings on record: ENL (YEATS)-H3K27cr HTRF (IC50, μM). (TR-FRET usually uses a lanthanide donor and a delayed reading to cut background.)

A further assay concerns the target T2, BRD4 bromodomain 1 (BD1) (Homo sapiens, UniProt O60885).
T2 construct: Selectivity against BRD4 bromodomain 1 (BD1), measured by HTRF; His; purchased Cayman 11720
Put plainly: BRD4 (BD1)-H4 tetra-acetylated HTRF histone-binding assay. An outline of the steps:
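Recombinant BRD4 BD1 (10 nM) was combined with 13.3 nM biotinylated tetra-acetylated H4 peptide, Eu-anti-His antibody and APC-streptavidin in HEPES buffer, pH 7. Compound was pin-transferred and plates incubated ≥2 h before HTRF reading (665/620 nm ratio). Percent inhibition was normalised to vehicle (maximum) and no-peptide (minimum) wells.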

Assay [2] concerns the target T3, ENL(YEATS)-HiBiT (Homo sapiens, UniProt Q03111).
T3 sequence (Q03111 1-138 limits assumed): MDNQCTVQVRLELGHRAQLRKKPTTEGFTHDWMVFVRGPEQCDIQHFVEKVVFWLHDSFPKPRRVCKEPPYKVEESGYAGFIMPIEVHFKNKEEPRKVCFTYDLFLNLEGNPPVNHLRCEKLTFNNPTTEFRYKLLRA
The settings on record: read-out: ENL YEATS CETSA (IC50); Table 2; OCI/AML-2 cells expressing ENL(YEATS)-HiBiT. For orientation: With HiBiT, luminescence reflects the tagged protein that the partner subunit can reach.

Assay [3] deals with T3, ENL(YEATS)-HiBiT. The assay is described as follows: cell-based.

Each structure is given as a SMILES string. Like-named read-outs stand apart in the source and are kept apart here.

Consider `O=C(NC1CCC(O)CC1)c1ccc2nc(-c3ccccc3)cn2c1` (stereo not drawn) [Compound 2], for which the IC50 – broadly, the concentration that gives 50% inhibition – in assay [1] (Table 1) is more than 50 µM; in assay [1] (Table 2) it was more than 50 µM; at BRD4 bromodomain 1 (BD1) (Table 1), more than 50 µM; on BRD4 bromodomain 1 (BD1) (Table 2), more than 50 µM; at ENL(YEATS)-HiBiT [2], more than 100 µM; against ENL(YEATS)-HiBiT [3] it was more than 100 µM.
`CC(C)NC(=O)c1ccc2nc(-c3cccc(OC(F)(F)F)c3)cn2c1` [Compound 3]: the half-maximal inhibitory concentration (IC50) is 3.5 µM in assay [1] (Table 1); 3.5 µM in assay [1] (Table 2); more than 50 µM on BRD4 bromodomain 1 (BD1) (Table 1); more than 50 µM on BRD4 bromodomain 1 (BD1) (Table 2); more than 100 µM at ENL(YEATS)-HiBiT [2]; more than 100 µM at ENL(YEATS)-HiBiT [3].
`CC(C)NC(=O)c1ccc2nc(-c3ccccc3C(F)(F)F)cn2c1` [Compound 6]: the 50% inhibitory concentration (IC50) in assay [1] (Table 1) is more than 50 µM; in assay [1] (Table 2) it was more than 50 µM; at BRD4 bromodomain 1 (BD1) (Table 1), more than 50 µM; at BRD4 bromodomain 1 (BD1) (Table 2), more than 50 µM; at ENL(YEATS)-HiBiT [2], more than 100 µM; against ENL(YEATS)-HiBiT [3], more than 100 µM.
On to `CC(C)NC(=O)c1ccc2nc(-c3ccc(C(F)(F)F)cc3)cn2c1` [Compound 7], for which the IC50 in assay [1] (Table 1) is more than 50 µM; in assay [1] (Table 2), more than 50 µM; on BRD4 bromodomain 1 (BD1) (Table 1), more than 50 µM; at BRD4 bromodomain 1 (BD1) (Table 2) it was more than 50 µM; at ENL(YEATS)-HiBiT [2], more than 100 µM; against ENL(YEATS)-HiBiT [3], more than 100 µM.
As for `CC(C)N(C)C(=O)c1ccc2nc(-c3ccccc3)cn2c1` [Compound 8], the IC50 in assay [1] (Table 1) is more than 50 µM; in assay [1] (Table 2) it was more than 50 µM; on BRD4 bromodomain 1 (BD1) (Table 1), more than 50 µM; at BRD4 bromodomain 1 (BD1) (Table 2), more than 50 µM; on ENL(YEATS)-HiBiT [2] it was more than 100 µM; at ENL(YEATS)-HiBiT [3], more than 100 µM.
Take `COc1ccccc1-c1cn2cc(C(=O)NC(C)C)ccc2n1` [Compound 10]: the IC50 was more than 50 µM in assay [1] (Table 1); more than 50 µM in assay [1] (Table 2); more than 50 µM on BRD4 bromodomain 1 (BD1) (Table 1); more than 50 µM at BRD4 bromodomain 1 (BD1) (Table 2); more than 100 µM on ENL(YEATS)-HiBiT [2]; more than 100 µM against ENL(YEATS)-HiBiT [3].
Consider `O=C(NC1CCCCC1O)c1ccc2nc(-c3ccccc3)cn2c1` (stereo not drawn) [Compound 11], for which the IC50 in assay [1] (Table 1) was more than 50 µM; in assay [1] (Table 2), more than 50 µM; on BRD4 bromodomain 1 (BD1) (Table 1), more than 50 µM; on BRD4 bromodomain 1 (BD1) (Table 2), more than 50 µM; on ENL(YEATS)-HiBiT [2], more than 100 µM; against ENL(YEATS)-HiBiT [3], more than 100 µM.
`CC(C)NC(=O)c1ccc2nc(-c3ccccc3OC(F)(F)F)cn2c1` [Compound 12]: the IC50 was more than 50 µM in assay [1] (Table 1); more than 50 µM in assay [1] (Table 2); more than 50 µM at BRD4 bromodomain 1 (BD1) (Table 1); more than 50 µM at BRD4 bromodomain 1 (BD1) (Table 2); more than 100 µM at ENL(YEATS)-HiBiT [2]; more than 100 µM against ENL(YEATS)-HiBiT [3].
`CCC(CC)NC(=O)c1ccc2nc(-c3ccccc3)cn2c1` [Compound 13]: the IC50 was more than 50 µM in assay [1] (Table 1); more than 50 µM in assay [1] (Table 2); more than 50 µM on BRD4 bromodomain 1 (BD1) (Table 1); more than 50 µM at BRD4 bromodomain 1 (BD1) (Table 2); more than 100 µM at ENL(YEATS)-HiBiT [2]; more than 100 µM on ENL(YEATS)-HiBiT [3].
Consider `CC(C)NC(=O)c1ccc2nc(-c3ccc(OC(F)(F)F)cc3)cn2c1` [Compound 19], for which the IC50 in assay [1] (Table 1) was more than 50 µM; in assay [1] (Table 2), more than 50 µM; at BRD4 bromodomain 1 (BD1) (Table 1), more than 50 µM; on BRD4 bromodomain 1 (BD1) (Table 2), more than 50 µM; at ENL(YEATS)-HiBiT [2], more than 100 µM; at ENL(YEATS)-HiBiT [3] it was more than 100 µM.
Regarding `CC(C)NC(=O)c1ccc2nc(-c3cccc(C(F)(F)F)c3)cn2c1` [Compound 21], the IC50 is 15 µM in assay [1] (Table 1); 15 µM in assay [1] (Table 2); more than 50 µM on BRD4 bromodomain 1 (BD1) (Table 1); more than 50 µM on BRD4 bromodomain 1 (BD1) (Table 2); more than 100 µM on ENL(YEATS)-HiBiT [2]; more than 100 µM at ENL(YEATS)-HiBiT [3].
As to `Cc1ccc(-c2cn3cc(C(=O)NC(C)C)ccc3n2)cc1C` [Compound 25], the IC50 in assay [1] (Table 1) was more than 50 µM; in assay [1] (Table 2), more than 50 µM; at BRD4 bromodomain 1 (BD1) (Table 1), more than 50 µM; on BRD4 bromodomain 1 (BD1) (Table 2), more than 50 µM; on ENL(YEATS)-HiBiT [2], more than 100 µM; against ENL(YEATS)-HiBiT [3] it was more than 100 µM.
In the case of `Cc1ccccc1-c1cn2cc(C(=O)NC(C)C)ccc2n1` [Compound 26], the IC50 was 33 µM in assay [1] (Table 1); 33 µM in assay [1] (Table 2); more than 50 µM on BRD4 bromodomain 1 (BD1) (Table 1); more than 50 µM at BRD4 bromodomain 1 (BD1) (Table 2); 80 µM against ENL(YEATS)-HiBiT [3].
Take `CC(C)NC(=O)c1ccc2nc(-c3cccc(NS(=O)(=O)NCCc4c[nH]cn4)c3)cn2c1` [Compound 46]: the IC50 in assay [1] (Table 1) is 0.12 µM; in assay [1] (Table 2), 0.12 µM; at BRD4 bromodomain 1 (BD1) (Table 1), more than 50 µM; at BRD4 bromodomain 1 (BD1) (Table 2), more than 50 µM; against ENL(YEATS)-HiBiT [3], 8.5 µM.
For the compound `O=C(NC1(CO)CCC1)c1ccc2nc(-c3ccccc3)cn2c1` [Compound 72], the IC50 (in assay [1] (Table 1); in assay [1] (Table 2); at ENL(YEATS)-HiBiT [2]; on ENL(YEATS)-HiBiT [3]) was more than 50 µM throughout.
As to `CC1(NC(=O)c2ccc3nc(-c4ccccc4)cn3c2)CCC1` [Compound 73], the IC50 (in assay [1] (Table 1); in assay [1] (Table 2); on ENL(YEATS)-HiBiT [2]; on ENL(YEATS)-HiBiT [3]) was more than 50 µM throughout.
